# Test results from US12281363B2, “Methods for detecting antiviral-drug resistant virus” (Secretary of State for Health and Social Care, priority 2018, dated 2025).
# Like-named read-outs stand apart in the source and are kept apart here.
# Test system: HSV-2
# Experiment: Plaque reduction assay, HSV-2 clinical isolates on Vero cells
# Format: cell-based
# Details: Human alphaherpesvirus 2, Vero
# Text: Viral isolates were used to infect a sub-confluent monolayer of Vero cells at a concentration of 75 or 50 plaque forming units (PFU) per well for HSV-1 and HSV-2, respectively. […] CMC medium typically used to create a semisolid interface and prevents indiscrimate viral spreading. Other materials (e.g. agar) may also be used to create this interface.
# Cells were fixed with 10% formalin and stained with crystal violet before enumeration of the plaques (microscopic observation or use of fluorescent antibodies for detection is also suitable). The data obtained from these experiments were then expressed as percent inhibition of viral infectivity relative to the no drug control.
# Definitions of phenotypic drug susceptibility classification as sensitive or resistant were as follows: ACV, <3 μM or >40 μM; PCV, <10 μM or >40 μM; CDV, <24 μM or >30 μM; FOS, <250 μM or >400 μM; and ACV, <6.5 μM or >40 μM; PCV, <38 μM or >40 μM; FOS, <250 μM or >400 μM for HSV-1 and HSV-2, respectively. Any IC50 values falling in between these sensitive and resistant cut-offs were reported as intermediate resistance.
# The phenotype (i.e. reactivity to a drug) of the virus was characterised by the plaque reduction assay as described above. The present inventors have characterised the resistance-causing phenotype of a large number of TK and DNA pol mutations.
smiles,measurement,setting,value
"O=C(O)P(=O)(O)O [Foscarnet, foscarnet]",IC50,"isolate HPG001, HSV-2 TK A125T (373G>A), read-out: Drug susceptibility (IC50 value)",236 µM
same,IC50,"isolate HPG001, HSV-2 TK A125T (373G>A), read-out: Drug susceptibility Foscarnet (FOS)",< 250 µM
same,IC50,"isolate HPG001, HSV-2 pol H714R (2141A>G), read-out: Drug susceptibility (IC50 value)",236 µM
same,IC50,"isolate HPG001, HSV-2 pol H714R (2141A>G), read-out: Drug susceptibility Foscarnet (FOS)",< 250 µM
same,IC50,"isolate HPG004, HSV-2 pol M494T (1481T>C), also pol S729N, read-out: Drug susceptibility (IC50 value)",349 µM
same,IC50,"isolate HPG004, HSV-2 pol M494T (1481T>C), also pol S729N, read-out: Drug susceptibility Foscarnet (FOS)",250 to 400 µM
same,IC50,"isolate HPG007, HSV-2 pol R628G (1882C>G), read-out: Drug susceptibility (IC50 value)",783 µM
same,IC50,"isolate HPG007, HSV-2 pol R628G (1882C>G), read-out: Drug susceptibility Foscarnet (FOS)",> 400 µM
same,IC50,"isolate HPG017, HSV-2 TK Q186H (558G>T), read-out: Drug susceptibility (IC50 value)",118 µM
same,IC50,"isolate HPG017, HSV-2 TK Q186H (558G>T), read-out: Drug susceptibility Foscarnet (FOS)",< 250 µM
same,IC50,"isolate HPG022, HSV-2 TK E213D (639A>C), read-out: Drug susceptibility (IC50 value)",82 µM
same,IC50,"isolate HPG022, HSV-2 TK E213D (639A>C), read-out: Drug susceptibility Foscarnet (FOS)",< 250 µM
same,IC50,"isolate HPG022, HSV-2 pol D174Y (520G>T), read-out: Drug susceptibility (IC50 value)",82 µM
same,IC50,"isolate HPG022, HSV-2 pol D174Y (520G>T), read-out: Drug susceptibility Foscarnet (FOS)",< 250 µM
same,IC50,"isolate HPG023, HSV-2 TK Q186H (558G>T), read-out: Drug susceptibility (IC50 value)",78 µM
same,IC50,"isolate HPG023, HSV-2 TK Q186H (558G>T), read-out: Drug susceptibility Foscarnet (FOS)",< 250 µM
same,IC50,"isolate HPG024, HSV-2 TK E213D (639A>C), read-out: Drug susceptibility (IC50 value)",88.7 µM
same,IC50,"isolate HPG024, HSV-2 TK E213D (639A>C), read-out: Drug susceptibility Foscarnet (FOS)",< 250 µM
same,IC50,"isolate HPG028, HSV-2 TK 98stop or A94fs (276delG, 278delG, 279delG, or 280delG), read-out: Drug susceptibility (IC50 value)",98.8 µM
same,IC50,"isolate HPG028, HSV-2 TK 98stop or A94fs (276delG, 278delG, 279delG, or 280delG), read-out: Drug susceptibility Foscarnet (FOS)",< 250 µM
same,IC50,"isolate HPG028, HSV-2 pol E776Q (2326G>C), also TK deletion (G) nt 276-280, read-out: Drug susceptibility (IC50 value)",98.8 µM
same,IC50,"isolate HPG028, HSV-2 pol E776Q (2326G>C), also TK deletion (G) nt 276-280, read-out: Drug susceptibility Foscarnet (FOS)",< 250 µM
same,IC50,"isolate HPG028, HSV-2 pol R775C, R775W (2323C>T; 2325C>G), also TK deletion (G) nt 276-280, read-out: Drug susceptibility (IC50 value)",98.8 µM
same,IC50,"isolate HPG028, HSV-2 pol R775C, R775W (2323C>T; 2325C>G), also TK deletion (G) nt 276-280, read-out: Drug susceptibility Foscarnet (FOS)",< 250 µM
same,IC50,"isolate HPG030, HSV-2 TK Q90stop (268C>T), read-out: Drug susceptibility (IC50 value)",92.3 µM
same,IC50,"isolate HPG030, HSV-2 TK Q90stop (268C>T), read-out: Drug susceptibility Foscarnet (FOS)",< 250 µM
same,IC50,"isolate HPG030, HSV-2 pol E761K (2281G>A), also TK Q90stop, read-out: Drug susceptibility (IC50 value)",92.3 µM
same,IC50,"isolate HPG030, HSV-2 pol E761K (2281G>A), also TK Q90stop, read-out: Drug susceptibility Foscarnet (FOS)",< 250 µM
same,IC50,"isolate HPG034, HSV-2 TK L313S (938A>C), read-out: Drug susceptibility Foscarnet (FOS)",< 250 µM
same,IC50,"isolate HPG036, HSV-2 TK E84K (250G>A), read-out: Drug susceptibility (IC50 value)",78.8 µM
same,IC50,"isolate HPG036, HSV-2 TK E84K (250G>A), read-out: Drug susceptibility Foscarnet (FOS)",< 250 µM
same,IC50,"isolate HPG038, HSV-2 TK R34C (100C>T), read-out: Drug susceptibility (IC50 value)",73.7 µM
same,IC50,"isolate HPG038, HSV-2 TK R34C (100C>T), read-out: Drug susceptibility Foscarnet (FOS)",< 250 µM
same,IC50,"isolate HPG044, HSV-2 TK M86L (256A>C), read-out: Drug susceptibility (IC50 value)",73.8 µM
same,IC50,"isolate HPG044, HSV-2 TK M86L (256A>C), read-out: Drug susceptibility Foscarnet (FOS)",< 250 µM
same,IC50,"isolate HPG048, HSV-2 TK Q90stop (268C>T), read-out: Drug susceptibility (IC50 value)",56.9 µM
same,IC50,"isolate HPG048, HSV-2 TK Q90stop (268C>T), read-out: Drug susceptibility Foscarnet (FOS)",< 250 µM
same,IC50,"isolate HPG048, HSV-2 pol E761K (2281G>A), also TK Q90stop, read-out: Drug susceptibility (IC50 value)",56.9 µM
same,IC50,"isolate HPG048, HSV-2 pol E761K (2281G>A), also TK Q90stop, read-out: Drug susceptibility Foscarnet (FOS)",< 250 µM
same,IC50,"isolate HPG057, HSV-2 TK 98stop or A94fs (276delG, 278delG, 279delG, or 280delG), read-out: Drug susceptibility (IC50 value)",98.5 µM
same,IC50,"isolate HPG057, HSV-2 TK 98stop or A94fs (276delG, 278delG, 279delG, or 280delG), read-out: Drug susceptibility Foscarnet (FOS)",< 250 µM
same,IC50,"isolate HPG058, HSV-2 TK 183stop or P154fs (458delC, 459delC, 460delC, or 461delC), read-out: Drug susceptibility (IC50 value)",59 µM
same,IC50,"isolate HPG058, HSV-2 TK 183stop or P154fs (458delC, 459delC, 460delC, or 461delC), read-out: Drug susceptibility Foscarnet (FOS)",< 250 µM
same,IC50,"read-out: Drug susceptibility (IC50 value), isolate HPG034, HSV-2 TK L313S (938A>C)",73.5 µM
same,IC50,"read-out: Drug susceptibility (IC50 value), isolate HPG056, HSV-2 pol M447L (1339A>C)",88 µM
same,IC50,"read-out: Drug susceptibility Foscarnet (FOS), isolate HPG056, HSV-2 pol M447L (1339A>C)",< 250 µM
